Source: patent publication US9845322B2 (Hoffmann-La Roche Inc., priority 2016, dated 2017)
Read-outs that look alike come from different tables or passages of the source.

Tested on: HBsAg secretion in HepG2.2.15 cells
Assay: HBsAg assay (chemiluminescence immunoassay of secreted HBsAg in culture supernatant)
Format: cell-based, HBV
Settings: concentration at which HBsAg secretion was reduced by 50% compared to the no drug control, read-out: IC50 (HBsAg assay)
Method: HepG2.2.15 cells (Acs et al. Proc Natl Acad Sci USA, 84, (1987), 4641-4), a constitutively HBV-expressing cell line were cultured in DMEM+Glutamax-I medium (Invitrogen, Carlsbad, Calif., USA), supplemented with 10% fetal bovine serum (Invitrogen) and G418 (Invitrogen) at a final concentration of 200 mg/L and maintained in 5% CO2 at 37° C.
HepG2.2.15 cells were seeded in duplicate into white, 96-well plates at 1.5×10^4 cells/well. The cells were treated with a three-fold serial dilution series of the compounds in DMSO. The final DMSO concentration in all wells was 1% and DMSO was used as no drug control.
The HBsAg chemiluminescence immunoassay (CLIA) kit (Autobio Diagnostics Co., Zhengzhou, China, Catalog number: CL0310-2) was used to measure the levels of secreted HBV antigens semi-quantitatively. For the detection 50 μL/well culture supernatant was used and HBsAg was quantified using HBsAg chemiluminescence immunoassay (CLIA) kit (Autobio Diagnostics Co., Zhengzhou, China, Catalog number: CL0310-2), 50 μL of the supernatant was transferred to the CLIA assay plate and 50 μL of enzyme conjugate reagent was added into each well. The plates were sealed and gently agitated for 1 hour at room temperature. The supernatant-enzyme-mixture was discarded and wells were washed 6 times with 300 μL of PBS. The residual liquid was removed by plating the CLIA plate […] on absorbent tissue paper. 25 μL of substrates A and B were added to each well. Luminance was measured using a luminometer (Mithras LB 940 Multimode Microplate Reader) after 10 minutes incubation. Dose-response curves were generated and the IC50 value was extrapolated by using the E-WorkBook Suite (ID Business Solutions Ltd., Guildford, UK). The IC50 was defined as the compound concentration (or conditioned media log dilution) at which HBsAg secretion was reduced by 50% compared to the no drug control.
The compounds according to formula I were tested for their capacity to inhibit HBsAg as described herein.

[1] = Hepatitis B virus, HepG2.2.15, HepG2.2.15 cells

Row | SMILES | IC50 [1] [nM] | IC50 (HepG2.2.15 cells) [nM]
1 | CC1c2cnc(-c3ncccn3)nc2CCN1c1cc(F)c(F)c(OCCCS(N)(=O)=O)c1 (centres unmarked) [Example 97, 3-[2,3-difluoro-5-(5-methyl-2-pyrimidin-2-yl-7,8-dihydro-5H-pyrido[4,3-d]pyrimidin-6-yl)phenoxy]propane-1-sulfonamide] | 154 | –
2 | CC1c2cnc(-c3ncccn3)nc2CCN1c1cc(F)cc(OCC2CC2)c1 (centres unmarked) [Example 145, 6-[3-(cyclopropylmethoxy)-5-fluoro-phenyl]-5-methyl-2-pyrimidin-2-yl-7,8-dihydro-5H-pyrido[4,3-d]pyrimidine] | 14 | –
3 | COc1cc(F)cc(N2CCc3nc(-c4ncccn4)ncc3C2C)c1 (centres unmarked) [Example 72, 6-(3-fluoro-5-methoxy-phenyl)-5-methyl-2-pyrimidin-2-yl-7,8-dihydro-5H-pyrido[4,3-d]pyrimidine] | – | 22
4 | CC1c2cnc(-c3ncccn3)nc2CCN1c1cc(F)c(F)c(OCC2CC2)c1 (centres unmarked) [Example 88, 6-[3-(cyclopropylmethoxy)-4,5-difluoro-phenyl]-5-methyl-2-pyrimidin-2-yl-7,8-dihydro-5H-pyrido[4,3-d]pyrimidine] | 27 | –
5 | CC1c2cnc(-c3ncccn3)nc2CCN1c1cc(F)c(F)c(OCC2CSC2)c1 (centres unmarked) [Example 119, 6-[3,4-difluoro-5-(thietan-3-ylmethoxy)phenyl]-5-methyl-2-pyrimidin-2-yl-7,8-dihydro-5H-pyrido[4,3-d]pyrimidine] | 51 | –
6 | COc1cc(N2CCc3nc(-c4ncccn4)ncc3C2C)cc(F)n1 (centres unmarked) [Example 129, 6-(2-fluoro-6-methoxy-4-pyridyl)-5-methyl-2-pyrimidin-2-yl-7,8-dihydro-5H-pyrido[4,3-d]pyrimidine] | 18 | –
7 | COc1cc(F)cc(N2CCc3nc(-c4ncccn4)ncc3C2C)c1 (single isomer, unassigned; (+)) [Example 74, (+)-6-(3-fluoro-5-methoxy-phenyl)-5-methyl-2-pyrimidin-2-yl-7,8-dihydro-5H-pyrido[4,3-d]pyrimidine] | – | 2250
8 | CC1c2cnc(-c3ncccn3)nc2CCN1c1cc(F)cc(N2CCNCC2)n1 (centres unmarked) [Example 209, 6-(4-fluoro-6-piperazin-1-yl-2-pyridyl)-5-methyl-2-pyrimidin-2-yl-7,8-dihydro-5H-pyrido[4,3-d]pyrimidine] | 649 | –
9 | CC1c2cnc(-c3ccccn3)nc2CCN1c1cc(F)c(F)c(OCCCN)c1 (centres unmarked) [Example 34, 3-[2,3-difluoro-5-[5-methyl-2-(2-pyridyl)-7,8-dihydro-5H-pyrido[4,3-d]pyrimidin-6-yl]phenoxy]propan-1-amine] | 1710 | –
10 | CC1c2cnc(-c3ncccn3)nc2CCN1c1cc(N2CCOCC2)cc(F)n1 (centres unmarked) [Example 202, 4-[2-fluoro-6-(5-methyl-2-pyrimidin-2-yl-7,8-dihydro-5H-pyrido[4,3-d]pyrimidin-6-yl)-4-pyridyl]morpholine] | 13 | –
11 | CC1c2cnc(-c3ccccn3)nc2CCN1c1cc(F)cc(OCC(F)F)n1 (centres unmarked) [Example 193, 6-[6-(2,2-difluoroethoxy)-4-fluoro-2-pyridyl]-5-methyl-2-(2-pyridyl)-7,8-dihydro-5H-pyrido[4,3-d]pyrimidine] | 83 | –
12 | CC1c2cnc(-c3ccccn3)nc2CCN1c1cc(F)cc(N2CCNC(=O)C2)n1 (centres unmarked) [Example 223, 4-[4-fluoro-6-[5-methyl-2-(2-pyridyl)-7,8-dihydro-5H-pyrido[4,3-d]pyrimidin-6-yl]-2-pyridyl]piperazin-2-one] | 15 | –
13 | COCCOc1cc(N2CCc3nc(-c4ccccn4)ncc3C2C)cc(F)c1F (single isomer, unassigned; (+)) [Example 20, (+)-6-[3,4-difluoro-5-(2-methoxyethoxy)phenyl]-5-methyl-2-(2-pyridyl)-7,8-dihydro-5H-pyrido[4,3-d]pyrimidine] | – | 5010
14 | COc1cc(N2CCc3nc(-c4ncccn4)ncc3C2C)cc(Cl)n1 (centres unmarked) [Example 141, 6-(2-chloro-6-methoxy-4-pyridyl)-5-methyl-2-pyrimidin-2-yl-7,8-dihydro-5H-pyrido[4,3-d]pyrimidine] | 113 | –
15 | CC1c2cnc(-c3ncccn3)nc2CCN1c1cc(F)c(F)c(OCCCN2CCCC2=O)c1 (centres unmarked) [Example 96, 1-[3-[2,3-difluoro-5-(5-methyl-2-pyrimidin-2-yl-7,8-dihydro-5H-pyrido[4,3-d]pyrimidin-6-yl)phenoxy]propyl]pyrrolidin-2-one] | 94 | –
16 | CC1c2cnc(-c3ccccn3)nc2CCN1c1cc(F)cc(N2CCOCC2)n1 (centres unmarked) [Example 221, 4-[4-fluoro-6-[5-methyl-2-(2-pyridyl)-7,8-dihydro-5H-pyrido[4,3-d]pyrimidin-6-yl]-2-pyridyl]morpholine] | 34 | –
17 | CC1c2cnc(-c3ncccn3)nc2CCN1c1cc(OCCCN2CCOCC2=O)cc(F)n1 (single isomer, unassigned; (-)) [Example 181, (−)-4-[3-[[2-fluoro-6-[5-methyl-2-pyrimidin-2-yl-7,8-dihydro-5H-pyrido[4,3-d]pyrimidin-6-yl]-4-pyridyl]oxy]propyl]morpholin-3-one] | 12 | –
18 | CC1c2cnc(-c3ccccn3)nc2CCN1c1cc(F)c(F)c(OCCCS(C)(=O)=O)c1 (centres unmarked) [Example 33, 6-[3,4-difluoro-5-(3-methylsulfonylpropoxy)phenyl]-5-methyl-2-(2-pyridyl)-7,8-dihydro-5H-pyrido[4,3-d]pyrimidine] | 48 | –
19 | CC1c2cnc(-c3ncccn3)nc2CCN1c1cc(F)c(F)c(OCCC(=O)O)c1 (centres unmarked) [Example 51, 3-[2,3-difluoro-5-(5-methyl-2-pyrimidin-2-yl-7,8-dihydro-5H-pyrido[4,3-d]pyrimidin-6-yl)phenoxy]propanoic acid] | 2670 | –
20 | CC1c2cnc(-c3ccccn3)nc2CCN1c1cc(F)c(F)c(OCCS(C)(=O)=O)c1 (centres unmarked) [Example 26, 6-[3,4-difluoro-5-(2-methylsulfonylethoxy)phenyl]-5-methyl-2-(2-pyridyl)-7,8-dihydro-5H-pyrido[4,3-d]pyrimidine] | 78 | –
21 | COc1cc(N2CCc3nc(-c4ncccn4)ncc3C2C)cc(Cl)c1F (single isomer, unassigned; (+)) [Example 42, (+)-6-(3-chloro-4-fluoro-5-methoxy-phenyl)-5-methyl-2-pyrimidin-2-yl-7,8-dihydro-5H-pyrido[4,3-d]pyrimidine] | – | 3250
22 | COc1cc(N2CCc3nc(-c4ncccn4)ncc3C2C)cc(F)c1Cl (centres unmarked) [Example 40, 6-(4-chloro-3-fluoro-5-methoxy-phenyl)-5-methyl-2-pyrimidin-2-yl-7,8-dihydro-5H-pyrido[4,3-d]pyrimidine] | 4860 | –
23 | CC1c2cnc(-c3ncccn3)nc2CCN1c1cc(F)cc(N(C)C)n1 (centres unmarked) [Example 197, 4-fluoro-N,N-dimethyl-6-(5-methyl-2-pyrimidin-2-yl-7,8-dihydro-5H-pyrido[4,3-d]pyrimidin-6-yl)pyridin-2-amine] | – | 6
24 | COc1cc(Cl)cc(N2CCc3nc(-c4ncccn4)ncc3C2C)n1 (centres unmarked) [Example 140, 6-(4-chloro-6-methoxy-2-pyridyl)-5-methyl-2-pyrimidin-2-yl-7,8-dihydro-5H-pyrido[4,3-d]pyrimidine] | 24 | –
25 | CC1c2cnc(-c3ncccn3)nc2CCN1c1cc(F)c(F)c(OCC2CC2(F)F)c1 (centres unmarked) [Example 82] | 30 | –
26 | Cc1cc(N(C)C)nc(N2CCc3nc(-c4ncccn4)ncc3[C@H]2C)n1 [Example 213, (−)-N,N,6-trimethyl-2-[5-methyl-2-pyrimidin-2-yl-7,8-dihydro-5H-pyrido[4,3-d]pyrimidin-6-yl]pyrimidin-4-amine] | 65 | –
